pEC50: −log10 of the molar value. Like-named read-outs stand apart in the source and are kept apart here.
Biological target: T1, rCB2 (Rattus norvegicus, UniProt Q9QZN9)
T1 construct: expressed in transfected cells; host or cells: HEK293 cells stably co-expressing GIRK1/2 channels
T1 sequence (Q9QZN9 1-360): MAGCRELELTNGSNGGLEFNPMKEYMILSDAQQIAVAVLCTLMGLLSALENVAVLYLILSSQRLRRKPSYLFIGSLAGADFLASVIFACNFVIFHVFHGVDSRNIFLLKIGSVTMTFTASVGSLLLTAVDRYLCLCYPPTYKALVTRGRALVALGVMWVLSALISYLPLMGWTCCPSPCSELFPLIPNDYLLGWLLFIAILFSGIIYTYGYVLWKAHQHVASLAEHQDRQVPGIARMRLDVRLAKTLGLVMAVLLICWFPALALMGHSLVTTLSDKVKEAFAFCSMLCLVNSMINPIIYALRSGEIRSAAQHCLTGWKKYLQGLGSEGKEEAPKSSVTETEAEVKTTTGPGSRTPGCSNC
Assay: Thallium flux assay in HEK/GIRK cells expressing rCB2
Assay type: cell-based
Details: for rCB2 GIRK (−) 2-AG % Max ± SEM / rCB2 GIRK (+) 2-AG % Max ± SEM: % of maximal 2-AG response
Experimental: To identify new compounds capable of potentiating CB2 responses to the endogenous agonist 2-AG, we used a thallium flux assay measuring the ability of ligands to enhance 2-AG-induced responses in cells expressing rCB2 and GIRK1/2 channels to screen a collection of FDA-approved drugs. Compounds were added to cells loaded with thallium-sensitive dye and allowed to incubate for 2.3 min, whereupon a submaximal concentration (EC20) of 2-AG was added to the cells and the signal was monitored for an additional 2.7 min. The ~1000 compound collection was initially screened at a single point using a 10 µM concentration of the compound. Test compounds that potentiated the cellular response to 2-AG by a minimum of 3 standard deviations above the average EC20 agonist response were selected as potential PAM hits. A total of 63 putative PAMs were identified; of these, 13 were confirmed as active with concentration-dependent activity at the rCB2 receptor.
The cell lines used in this manuscript were generated in-house. Their preparation is described in detail in Qi et al.. Cells were used for 10 passages for experiments and day-to-day signals in both the CB2 and CB1 lines were stable across this passage number. Human Embryonic Kidney (HEK) 293 cells stably expressing rCB2 and the G protein Gqi9 were maintained in Dulbecco’s modified Eagle media (DMEM) containing 10% FBS, 1× antibiotic/antimycotic, 20 mM HEPES, 1 mM sodium pyruvate, 2 mM L-glutamine, 1× non-essential amino acids, 700 µg/mL G418 sulfate, and 0.6 µg/mL puromycin. HEK cells stably expressing rCB2 or rCB1 and the G protein inwardly rectifying potassium channel (GIRK) were maintained in DMEM/F12 containing 10% FBS, 1× antibiotic/antimycotic, 20 mM HEPES, 1 mM sodium pyruvate, 2 mM L-glutamine, 1× non-essential amino acids, 700 µg/mL G418 sulfate, and 0.6 µg/mL puromycin. Cells were monitored by periodic PCR detection using the LookOut Mycoplasma PCR Detection Kit (Sigma-Aldrich, St Louis, MO, USA) to eliminate potential mycoplasma infection. Reagents were obtained from Invitrogen (Waltham, MA, USA) unless otherwise noted.
Thallium flux assays were performed as previously described in Niswender et al., 2008 [31]. HEK/GIRK cells stably expressing rCB1 or rCB2 (15,000 cells/20 µL/well) were seeded in 384-well, poly-D-lysine coated assay plates (Corning BioCoat®) (Corning Inc., Corning, NY, USA) and incubated overnight at 37 °C in the presence of 5% CO2. The next day, the medium was removed and replaced with 20 μL of 1.2 µM thallium-sensitive dye Thallos-AM (ION biosciences, San Marcos, TX, USA), prepared as a DMSO stock solution mixed in a 1:1 ratio with 10% (w/v) pluronic acid F-127, and diluted in assay buffer (Hank’s balanced salt solution, 20 mM HEPES, pH 7.4). Following 1 h at room temperature, the dye solution was removed and replaced with 20 µL assay buffer. For screening of the FDA-Approved Drug Collection, 10 mM DMSO stocks of library compounds were transferred to daughter plates using an Echo acoustic plate reformatter (Labcyte, Sunnyvale, CA, USA) and diluted in assay buffer to a 2× final concentration. For concentration–response curve experiments, compounds were serially diluted 1:3 into 10-point concentration–response curves in DMSO, transferred to daughter plates using the Echo or Bravo Automated Liquid Handling Platform (Agilent Technologies, Santa Clara, CA, USA), and diluted in assay buffer to a 2× final concentration. Thallium flux was measured using the Hamamatsu FDSS/μCELL Kinetic Plate Imager (Bridgewater, NJ, USA). After the establishment of a fluorescence baseline (excitation, 480 ± 20 nm; emission, 540 ± 30 nm), 20 µL (2×) of test compound was added to the cells at 1 s and the response was measured. […]

[1] = rCB2 GIRK (−) 2-AG pEC50 ± SEM, thallium flux, absence of 2-AG
[2] = thallium flux, presence of EC20 2-AG

Structure (SMILES) | pEC50 [1] | pEC50 (rCB2 GIRK EC50 in absence of 2-AG, thallium flux, absence of 2-AG) | pEC50 (rCB2 GIRK EC50 in presence of 2-AG, thallium flux, presence of EC20 2-AG) | rCB2 GIRK (−) 2-AG % Max ± SEM (thallium flux, absence of 2-AG) | rCB2 GIRK (+) 2-AG % Max ± SEM [2] | pEC50 (rCB2 GIRK (+) 2-AG pEC50 ± SEM, thallium flux, presence of EC20 2-AG) | rCB2 GIRK (−) 2-AG pEC50 ± SEM (thallium flux, absence of 2-AG) | rCB2 GIRK (+) 2-AG pEC50 ± SEM [2] | EC50 (thallium flux rCB2, vehicle instead of AM630, read-out: pEC50 of mycophenolate mofetil CRC, vehicle (converted)) | pEC50 (thallium flux, absence of 2-AG, read-out: rCB2 GIRK EC50 in absence of 2-AG) | pEC50 (thallium flux, presence of EC20 2-AG, read-out: rCB2 GIRK EC50 in presence of 2-AG)
O=C(NCC1CCOCC1)c1cnc(Nc2ccc(Cl)cc2Cl)nc1C(F)(F)F [GW-842,166X, 2-(2,4-dichloroanilino)-N-(oxan-4-ylmethyl)-4-(trifluoromethyl)pyrimidine-5-carboxamide] | 7.26 | 7.25 | 7.13 | 89 ± 5% | 82 ± 4% |  |  |  |  |  | 
CC1(Cc2ccccc2)COc2cc(C(=O)N3CCCCC3)ccc21 (centres unmarked) [MDA7, 1-[(3-benzyl-3-methyl-2,3-dihydro-1-benzofuran-6-yl)carbonyl]piperidine] | < 5.00 |  |  | −64 ± 13% | −65 ± 15% | < 5.00 | < 5.0 | < 5.0 |  |  | 
COc1c(C)c2c(c(O)c1C/C=C(\C)CCC(=O)OCCN1CCOCC1)C(=O)OC2 [Mycophenolate mofetil] |  |  |  | 71 ± 5% | 74 ± 2% |  |  |  | 339 nM | 6.81 | 6.64
COc1c(C)c2c(c(O)c1C/C=C(\C)CCC(=O)O)C(=O)OC2 [Mycophenolic acid] |  |  |  |  |  |  |  | Inactive |  |  | 

— publication PMC12112332, “Characterization of Novel and Known Activators of Cannabinoid Receptor Subtype 2 Reveals Mixed Pharmacology That Differentiates Mycophenolate Mofetil and GW-842,166X from MDA7” (International Journal of Molecular Sciences, 2025)
